The target of the experiment is T1, HIV integrase (Human immunodeficiency virus type 1 group M subtype B, UniProt P12497, F1332H).
T1 construct: HIV integrase full length gene (J. Virol., 67, 425-437 (1993)) in which phenylalanine at codon 185 was substituted by histidine; made in house; host or cells: Escherichia coli BL21(DE3)
As to the kind of experiment: Determination of enzyme (HIV integrase) inhibitory activity. The note with it: recombinant integrase protein (F185H), donor DNA/target DNA, absorbance at 450 nm. It is filed as biochemical. In short, it runs like this: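 Full-length HIV integrase bearing F185H mutation, E. coli-expressed and purified, preincubated with compound on plate-bound biotinylated donor DNA for 60 min at 37 °C; digoxigenin-labelled target DNA then added for 10 min. Strand transfer detected by peroxidase anti-digoxigenin ELISA at 450 nm; IC50 from inhibition versus no-compound and no-enzyme controls.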

Structures can show the parent of a compound that is named as a salt.

By IC50 is commonly meant the concentration needed to halve the response being measured. Take `CC(C)[C@@H](CO)n1cc(C(=O)O)c(=O)c2cc(Cc3cccc(Cl)c3F)c(OC3CCNCC3)cc21` [Example 4-25, 6-(3-chloro-2-fluorobenzyl)-1-((1S)-1-(hydroxymethyl)-2-methylpropyl)-4-oxo-7-(piperidin-4-yloxy)-1,4-dihydroquinoline-3-carboxylic acid]: the IC50 was 4.1 nM.

As for `CC(=O)N[C@H]1CCN(c2cc3c(cc2Cc2cccc(Cl)c2F)c(=O)c(C(=O)O)cn3[C@H](CO)C(C)C)C1` [Example 4-26, 7-((3S)-3-(acetylamino)pyrrolidin-1-yl)-6-(3-chloro-2-fluorobenzyl)-1-((1S)-1-(hydroxymethyl)-2-methylpropyl)-4-oxo-1,4-dihydroquinoline-3-carboxylic acid], the IC50 was 9.2 nM.

Take `CC(=O)N[C@@H]1CCN(c2cc3c(cc2Cc2cccc(Cl)c2F)c(=O)c(C(=O)O)cn3[C@H](CO)C(C)C)C1` [Example 4-27, 7-((3R)-3-(acetylamino)pyrrolidin-1-yl)-6-(3-chloro-2-fluorobenzyl)-1-((1S)-1-(hydroxymethyl)-2-methylpropyl)-4-oxo-1,4-dihydroquinoline-3-carboxylic acid]: the IC50 was found to be 16 nM.

Regarding `CC(C)[C@@H](CO)n1cc(C(=O)O)c(=O)c2cc(Cc3cccc(Cl)c3F)c(OCS(=O)(=O)N(C)C)cc21` [Example 4-28, 6-(3-chloro-2-fluorobenzyl)-7-((dimethylamino)sulfonylmethoxy)-1-((1S)-1-(hydroxymethyl)-2-methylpropyl)-4-oxo-1,4-dihydroquinoline-3-carboxylic acid], the half-inhibitory concentration (IC50) was 4.5 nM.

Take `CC(C)[C@@H](CO)n1cc(C(=O)O)c(=O)c2cc(Cc3cccc(Cl)c3F)c(N3CCN[C@H](C)C3)cc21` [Example 4-29, 6-(3-chloro-2-fluorobenzyl)-1-((1S)-1-(hydroxymethyl)-2-methylpropyl)-7-((3R)-3-methylpiperazin-1-yl)-4-oxo-1,4-dihydroquinoline-3-carboxylic acid]: the IC50 stood at 5.1 nM.

Take `CC(C)[C@@H](CO)n1cc(C(=O)O)c(=O)c2cc(Cc3cccc(Cl)c3F)c(N3CCN[C@@H](C)C3)cc21` [Example 4-30, 6-(3-chloro-2-fluorobenzyl)-1-((1S)-1-(hydroxymethyl)-2-methylpropyl)-7-((3S)-3-methylpiperazin-1-yl)-4-oxo-1,4-dihydroquinoline-3-carboxylic acid]: the IC50 came to 6.1 nM.

Take `CC1CN(c2cc3c(cc2Cc2cccc(Cl)c2F)c(=O)c(C(=O)O)cn3[C@H](CO)C(C)C)CC(C)O1` (stereo partly drawn) [Example 4-31, 6-(3-chloro-2-fluorobenzyl)-7-(2,6-dimethylmorpholin-4-yl)-1-((1S)-1-(hydroxymethyl)-2-methylpropyl)-4-oxo-1,4-dihydroquinoline-3-carboxylic acid]: the IC50 is 13 nM.

Regarding `CC(C)[C@@H](CO)n1cc(C(=O)O)c(=O)c2cc(Cc3cccc(Cl)c3F)c(N3CCSCC3)cc21` [Example 4-32, 6-(3-chloro-2-fluorobenzyl)-1-((1S)-1-(hydroxymethyl)-2-methylpropyl)-4-oxo-7-(thiomorpholin-4-yl)-1,4-dihydroquinoline-3-carboxylic acid], the IC50 worked out at 7.1 nM.

In the case of `CC(C)[C@@H](CO)n1cc(C(=O)O)c(=O)c2cc(Cc3cccc(Cl)c3F)c(OCCN3CCNCC3)cc21` [Example 4-33, 6-(3-chloro-2-fluorobenzyl)-1-((1S)-1-(hydroxymethyl)-2-methylpropyl)-4-oxo-7-(2-(piperazin-1-yl)ethoxy)-1,4-dihydroquinoline-3-carboxylic acid dihydrochloride], the IC50 came out at 5.7 nM.

Consider `CC(C)[C@@H](CO)n1cc(C(=O)O)c(=O)c2cc(Cc3cccc(Cl)c3F)c(OCCCCN)cc21` [Example 4-34, 7-(4-aminobutoxy)-6-(3-chloro-2-fluorobenzyl)-1-((1S)-1-(hydroxymethyl)-2-methylpropyl)-4-oxo-1,4-dihydroquinoline-3-carboxylic acid hydrochloride], for which the IC50 turned out to be 3.9 nM.

Take `CC(C)[C@@H](CO)n1cc(C(=O)O)c(=O)c2cc(Cc3cccc(Cl)c3F)c(N3CCNC(=O)C3)cc21` [Example 4-35, 6-(3-chloro-2-fluorobenzyl)-1-((1S)-1-(hydroxymethyl)-2-methylpropyl)-4-oxo-7-(3-oxopiperazin-1-yl)-1,4-dihydroquinoline-3-carboxylic acid]: the IC50 was 6 nM.

Regarding `CC(C)[C@@H](CO)n1cc(C(=O)O)c(=O)c2cc(Cc3cccc(Cl)c3F)c(OC3CCOCC3)cc21` [Example 4-36, 6-(3-chloro-2-fluorobenzyl)-1-((1S)-1-(hydroxymethyl)-2-methylpropyl)-4-oxo-7-(tetrahydropyran-4-yloxy)-1,4-dihydroquinoline-3-carboxylic acid], the IC50 was determined as 5.4 nM.

For `CC(C)[C@@H](CO)n1cc(C(=O)O)c(=O)c2cc(Cc3cccc(Cl)c3F)c(O[C@@H]3CCNC3)cc21` [Example 4-37, 6-(3-chloro-2-fluorobenzyl)-1-((1S)-1-(hydroxymethyl)-2-methylpropyl)-4-oxo-7-((3R)-pyrrolidin-3-yloxy)-1,4-dihydroquinoline-3-carboxylic acid hydrochloride], the IC50 turned out to be 4.4 nM.

For `CC(C)[C@@H](CO)n1cc(C(=O)O)c(=O)c2cc(Cc3cccc(Cl)c3F)c(N3CC[C@H](N)C3)cc21` [Example 4-38, 7-((3S)-3-aminopyrrolidin-1-yl)-6-(3-chloro-2-fluorobenzyl)-1-((1S)-1-(hydroxymethyl)-2-methylpropyl)-4-oxo-1,4-dihydroquinoline-3-carboxylic acid], the IC50 was 12 nM.

With `CC(C)[C@@H](CO)n1cc(C(=O)O)c(=O)c2cc(Cc3cccc(Cl)c3F)c(N3CC[C@@H](N)C3)cc21` [Example 4-39, 7-((3R)-3-aminopyrrolidin-1-yl)-6-(3-chloro-2-fluorobenzyl)-1-((1S)-1-(hydroxymethyl)-2-methylpropyl)-4-oxo-1,4-dihydroquinoline-3-carboxylic acid], the IC50 worked out at 9.4 nM.

With `CCOC(=O)N1CCC(Nc2cc3c(cc2Cc2cccc(Cl)c2F)c(=O)c(C(=O)O)cn3[C@H](CO)C(C)C)CC1` [Example 4-40, 6-(3-chloro-2-fluorobenzyl)-7-(1-(ethoxycarbonyl)piperidin-4-ylamino)-1-((1S)-1-(hydroxymethyl)-2-methylpropyl)-4-oxo-1,4-dihydroquinoline-3-carboxylic acid], the IC50 stood at 6.8 nM.

Turning to `CC(=O)NCCOc1cc2c(cc1Cc1cccc(Cl)c1F)c(=O)c(C(=O)O)cn2[C@H](CO)C(C)C` [Example 4-41, 7-(2-(acetylamino)ethoxy)-6-(3-chloro-2-fluorobenzyl)-1-((1S)-1-(hydroxymethyl)-2-methylpropyl)-4-oxo-1,4-dihydroquinoline-3-carboxylic acid], the IC50 was 4.5 nM.

Take `CC(C)[C@@H](CO)n1cc(C(=O)O)c(=O)c2cc(Cc3cccc(Cl)c3F)c(NC3CCNCC3)cc21` [Example 4-42, 6-(3-chloro-2-fluorobenzyl)-1-((1S)-1-(hydroxymethyl)-2-methylpropyl)-4-oxo-7-(piperidin-4-ylamino)-1,4-dihydroquinoline-3-carboxylic acid]: the IC50 was found to be 7.9 nM.

Turning to `CC(C)[C@@H](CO)n1cc(C(=O)O)c(=O)c2cc(Cc3cccc(Cl)c3F)c(OCc3ccccc3)cc21` [Example 4-43, 7-benzyloxy-6-(3-chloro-2-fluorobenzyl)-1-((1S)-1-(hydroxymethyl)-2-methylpropyl)-4-oxo-1,4-dihydroquinoline-3-carboxylic acid], the IC50 stood at 6.4 nM.

For `CC(C)[C@@H](CO)n1cc(C(=O)O)c(=O)c2cc(Cc3cccc(Cl)c3F)c(Oc3ccccc3)cc21` [Example 4-44, 6-(3-chloro-2-fluorobenzyl)-1-((1S)-1-(hydroxymethyl)-2-methylpropyl)-4-oxo-7-phenoxy-1,4-dihydroquinoline-3-carboxylic acid], the IC50 was determined as 4.9 nM.

Take `CC(=O)N1CCC(Oc2cc3c(cc2Cc2cccc(Cl)c2F)c(=O)c(C(=O)O)cn3[C@H](CO)C(C)C)CC1` [Example 4-45, 7-((1-acetylpiperidin-4-yl)oxy)-6-(3-chloro-2-fluorobenzyl)-1-((1S)-1-(hydroxymethyl)-2-methylpropyl)-4-oxo-1,4-dihydroquinoline-3-carboxylic acid]: the IC50 worked out at 13 nM.

With `CC(C)[C@@H](CO)n1cc(C(=O)O)c(=O)c2cc(Cc3cccc(Cl)c3F)c(O[C@H]3CCNC3)cc21` [Example 4-46, 6-(3-chloro-2-fluorobenzyl)-1-((1S)-1-(hydroxymethyl)-2-methylpropyl)-4-oxo-7-((3S)-pyrrolidin-3-yloxy)-1,4-dihydroquinoline-3-carboxylic acid hydrochloride], the IC50 worked out at 6.8 nM.

Turning to `CC(C)[C@@H](CO)n1cc(C(=O)O)c(=O)c2cc(Cc3cccc(Cl)c3F)c(O[C@H]3CCOC3)cc21` [Example 4-47, 6-(3-chloro-2-fluorobenzyl)-1-((1S)-1-(hydroxymethyl)-2-methylpropyl)-4-oxo-7-((3S)-tetrahydrofuran-3-yloxy)-1,4-dihydroquinoline-3-carboxylic acid], the IC50 came to 6.6 nM.

In the case of `CC(C)[C@@H](CO)n1cc(C(=O)O)c(=O)c2cc(Cc3cccc(Cl)c3F)c(O[C@@H]3CCOC3)cc21` [Example 4-48, 6-(3-chloro-2-fluorobenzyl)-1-((1S)-1-(hydroxymethyl)-2-methylpropyl)-4-oxo-7-((3R)-tetrahydrofuran-3-yloxy)-1,4-dihydroquinoline-3-carboxylic acid], the half-maximal inhibitory concentration (IC50) amounted to 5.6 nM.

On to `CC(C)[C@@H](CO)n1cc(C(=O)O)c(=O)c2cc(Cc3cccc(Cl)c3F)c(OCCNS(C)(=O)=O)cc21` [Example 4-49, 6-(3-chloro-2-fluorobenzyl)-1-((1S)-1-(hydroxymethyl)-2-methylpropyl)-7-(2-(mesylamino)ethoxy)-4-oxo-1,4-dihydroquinoline-3-carboxylic acid], for which the IC50 was found to be 5.1 nM.

These data come from patent US7531554B2, “4-oxoquinoline compound and use thereof as HIV integrase inhibitor” (Japan Tobacco Inc., priority 2004, dated 2009).
